The values that follow are results of earlier work, collected in patent US7211274B2, “Hair growth formulation” (Hovis SDN BHD, priority 2002, dated 2007).

The conditions of the data set: reported.

In the case of tocopherols, the “Half life in humans” value was “about 20 hours”. Regarding tocotrienols, the “Half life in humans” value is 2 to 4 h.
